According to US20130209386A1, “NEW USES” (EVOCUTIS PLC, priority 2010, published 2013):
In brackets after ≈: the same amount, converted by molar mass. Several values for one entry are separate records, joined by “and”; a condition that tells them apart may be missing. Identical values can stand only once. Like-named read-outs stand apart in the source and are kept apart here. Marks after values point to notes of the source that are not given here.

Legend:
[1] = system: Propionibacterium acnes NCTC 737; test: Minimum inhibitory concentration (MIC) assay; type: cell-based
Protocol: (§1) The first test organism used was Propionibacterium acnes NCTC 737. This is a propionibacterial strain and is the type strain of the genus; it is fully susceptible to antibiotics. The propionibacteria are clinically significant due to their involvement in acne. They are also opportunistic pathogens in compromised hosts. Activity observed against these micro-organisms is expected to be a good predictor of activity against acne.
(§2) The propionibacteria were cultured and maintained on Wilkins-Chalgren Anaerobe Medium (agar and broth) at pH 6.0; all cultures were incubated anaerobically at 37° C. for 72 hours.
(a) Minimum Inhibitory Concentration (MIC) Assay
This is a standard international method for quantitatively assessing the antimicrobial activity of a compound in a liquid medium. The method used a sterile 96-well microtitre plate, capable of holding about 200 μl of liquid per well. The wells contained liquid culture medium and ranges of decreasing concentrations of the relevant test compound in doubling dilutions (eg 1000, 500, 250, 125 . . . μg/ml, etc, down to 0.49 μg/ml). The culture media were as described above.
(§3) The wells were inoculated with a liquid suspension of freshly grown micro-organism and incubated under the conditions described above. After incubation, the microtitre plate was examined visually (with the aid of a light box) for cloudiness in each well, which would indicate microbial growth. The MIC value was recorded as the lowest concentration of test compound required to inhibit microbial growth, ie the lowest concentration for which the liquid in the well remained clear.
The assays included both negative (culture medium with no micro-organisms) and positive (culture medium plus diluting solvent plus micro-organism) controls.

[2] = system: C. striatum NCTC 764; test: Fixed ratio combination MIC/MBC assays; type: cell-based, Corynebacterium striatum
Protocol: The second test organism used was Corynebacterium striatum NCTC 764. This is a Gram-positive bacterium which is closely related to organisms (aerobic diphtheroids of the genus Corynebacterium) that cause body odour (Guillet et al, Eur J Dermatol, 2000 Jan-Feb, 10(1): 41-2). The C. striatum was cultured and maintained on Mueller-Hinton Medium (agar and broth) at pH 7.3 (±0.1); cultures were incubated aerobically at 37° C. for 18-24 hours.
(§4) (g) Fixed Ratio Combination MIC/MBC Assays
(§5) This method used a sterile 96-well microtitre plate, capable of holding about 200 μl of liquid per well. The wells contained liquid culture medium and ranges of decreasing concentrations of the relevant test compounds alone in doubling dilutions (eg 1000, 500, 250, 125 . . . μg/ml, etc. down to 0.49 μg/ml) or doubling dilutions of a combination of two compounds mixed initially at a fixed concentration ratio (based on molarity in this instance). The culture medium was as described above.
as §3, with “compounds alone or concentrations of the mixture of the two test compounds” for “compound”, “the” for “the lowest concentration for which the”
(§6) The assays were conducted in triplicate and included both negative (culture medium with no micro-organisms) and positive (culture medium plus diluting solvent(s) plus micro-organism) controls.
(§7) These samples were then individually sub-cultured on antibiotic-free agar medium, under the incubation conditions described above. Following incubation they were examined visually for microbial growth.
(§8) Thus for each mixture tested, the FIC for compound A (FICA)=MIC for (A+B)/MIC for A alone. Similarly the FIC for compound B (FICB)=MIC for (A+B)/MIC for B alone. The overall FICI=FICA+FICB.
(§9) FBC & FBCI were calculated in the same manner using recorded MBC values.

[3] = system: Propionibacterium acnes NCTC 737; test: Disc diffusion assay (DDA) and synergy disc diffusion assay (SDDA); type: cell-based
Protocol: (c) Disc Diffusion Assay (DDA)
This is an internationally recognised standard method for qualitatively assessing the antimicrobial activity of a compound or combination of compounds.
A sterile paper disc was impregnated with a sample of the test compound(s) in a suitable solvent (or applied neat) and 30 minutes allowed for any of the solvents to evaporate (where possible). The disc was then placed on an agar plate onto which the test micro-organism had been inoculated. The plate was then incubated under the conditions described above, following which it was examined visually for signs of microbial growth. […] The diameter of this zone of “inhibition” was measured using a ProtoCOL™ automated zone sizer (Synbiosis, Cambridge, UK).
(d) Synergy Disc Diffusion Assay (SDDA)
This is a variation on the DDA method, in which two compounds are tested together for their combined antimicrobial activity.
Two test compounds A and B were placed on a single paper disc and the above described DDA procedure repeated.
The two compounds were then subjected in combination to the SDDA assay described above.
MIC/MBC experiments were performed in duplicate and (S)DDA experiments in triplicate.
The tropolone was dissolved in ethanol.

[4] = system: P. acnes NCTC 737; test: Fixed ratio combination MIC/MBC assays; type: cell-based, Propionibacterium acnes
Protocol: as §4, §5
as §3, with “compounds alone or concentrations of the mixture of the two test compounds” for “compound”, “the” for “the lowest concentration for which the”
as §6, §7, §8, §9

[5] = system: Propionibacterium acnes NCTC 737; test: Minimum biocidal concentration (MBC) assay; type: cell-based
Protocol: as §1, §2
(b) Minimum Biocidal Concentration (MBC) Assay
This assay, normally carried out after an MIC assay, determines the minimum concentration of a compound that is lethal to the micro-organism being tested.
as §7

[6] = system: P. acnes NCTC 737; test: Synthetic sebum time-to-kill assay; type: cell-based, Propionibacterium acnes; details: copper sulphate 97.5 mg/L, tropolone 195 mg/L; for Log10 change: T0 to T4 hours; for Log10 cfu/ml (T4 hours): after 4 hours, lowest detectable level 3.0; for Log10 cfu/ml (T0 hours): start count
Protocol: (f) Synthetic Sebum Time-to-Kill Assay This quantitative assay was designed to assess the level of kill of a P. acnes culture in a synthetic sebum (non-aqueous environment) over a defined time period (in this case 4 hours). A culture of P. acnes NCTC 737 was inoculated into a synthetic sebum (a liquid mixture of lipid components designed to simulate human sebum) containing the relevant test compound dissolved in 1-octanol. […] The plates were then incubated as described above and subsequently examined visually for growth. The numbers of viable microbial colonies on the plates were counted with the aid of a colony counter and converted to colony-forming units per ml (cfu/ml) using the appropriate dilution factor. Cell counts conducted in the absence of test compound acted as positive controls. Mixtures of tropolone and copper (II) sulphate, containing various relative proportions of the two actives, were subjected to synthetic sebum time-to-kill assays against P. acnes NCTC 737, as described above. All assays were conducted in triplicate.

`CC(=O)[O-].[Cu+]` [Copper (I) acetate] was tested, and the MIC [1] was 7.8 mg/L, the MBC [2] was >62.8** μg/ml and the MIC [2] was >62.8** μg/ml. For the same compound, the “(S)DDA with tropolone” value [3] was 32.35 mm, the “DDA zone of inhibition diameter” value [3] was 32.14 mm and the SDDA area increase [3] was 1.29%. The SDDA increase [3] was 0.21 mm, the MBC ([4]; compound alone) was 23.3 µg/mL and the MIC ([4]; compound alone) was 23.3 mg/L. The MBC [5] was 31.25 mg/L and the MIC/MBC ratio [5] was 0.25.
`CC(=O)[O-].CC(=O)[O-].[Cu+2]` [Copper (II) acetate] was tested, and the MIC [1] was 3.9 mg/L, the MBC [2] was >46.5** μg/ml and the MIC [2] was >46.5** μg/ml. For the same compound, the “(S)DDA with tropolone” value [3] was 30.80 mm, the “DDA zone of inhibition diameter” value [3] was 25.63 mm and the SDDA area increase [3] was 44.39%. The SDDA increase [3] was 5.17 mm, the MBC ([4]; compound alone) was 46 µg/mL and 34.6 µg/mL and the MBC [5] was 125 mg/L. The MIC/MBC ratio [5] was 0.03.
`O.O.O.O.O.O=S(=O)([O-])[O-].[Cu+2]` [Copper sulphate, copper (II) sulphate pentahydrate] was tested, and the MIC [1] was 15.6 mg/L, the MBC [2] was >40.9** μg/ml and the MIC [2] was >40.9** μg/ml. For the same compound, the “(S)DDA zone of inhibition diameter” value [3] was 17.3 (±2.59) mm, the MBC ([4]; compound alone) was >40.9** μg/ml and 60.8 μg/ml and the MIC ([4]; compound alone) was 20.4 mg/L and 30.4 mg/L. The MBC [5] was 125 mg/L, the MIC/MBC ratio [5] was 0.125 and the Log10 change [6] was −1.53 Log10. The “Log10 cfu/ml (T4 hours)” value [6] was 6.58 Log10 cfu/ml and the “Log10 cfu/ml (T0 hours)” value [6] was 8.11 Log10 cfu/ml.
`O=c1cccccc1O` [Tropolone, 2-hydroxy-2,4,6-cycloheptatrien-1-one] gave an MIC ([1]; Cutibacterium acnes, NCTC737, P. acnes NCTC 737, compound alone, read-out: MIC) of 15.6 mg/L (≈ 128 µM), an MBC ([2]; C. striatum NCTC 764, compound alone) of 62.5 µg/mL and an MBC ([2]; Corynebacterium striatum, NCTC764, C. striatum NCTC 764, compound alone, read-out: MBC) of over 62.5 µg/mL. It also gave a zone of inhibition at 200 µg/disc ([3]; Cutibacterium acnes, NCTC737, 200 μg tropolone and/or 12.5 μg copper sulphate per disc, read-out: (S)DDA zone of inhibition diameter) of 19.1 mm, a zone of inhibition at 12.5 µg/disc ([3]; Cutibacterium acnes, NCTC737, compound alone, 12.5 μg per disc (gluconate, picolinate 25 μg; silicate 12.4 μg; chlorophyllin 200 μg), read-out: DDA zone of inhibition diameter) of 13.2 mm and an MBC ([4]; Cutibacterium acnes, NCTC737, compound alone, read-out: MBC) of over 62.5 µg/mL. It also gave an MIC ([4]; Cutibacterium acnes, NCTC737, compound alone, read-out: MIC) of 31.2 mg/L, an MIC ([4]; compound alone) of 62.5 mg/L and an MBC ([5]; Cutibacterium acnes, NCTC737, P. acnes NCTC 737, compound alone, read-out: MBC) of 250 mg/L (≈ 2050 µM). For the same compound, the MIC/MBC ratio ([5]; P. acnes NCTC 737, compound alone) was 0.06, the Log10 change [6] was −0.31 Log10 and the “Log10 cfu/ml (T4 hours)” value [6] was 7.8 Log10 cfu/ml. The “Log10 cfu/ml (T0 hours)” value [6] was 8.11 Log10 cfu/ml.
